According to US20180193336A1, “SPRAY DRY FORMULATIONS” (Pulmokine, Inc., priority 2013, published 2018):
Several values for one entry are separate records, joined by “and”; a condition that tells them apart may be missing. Equal values may be shown once. Read-outs that look alike come from different tables or passages of the source. Marks after values point to notes of the source that are not given here.

Assays:
[1] = test system: PDGFAA stimulated AKT phosphorylation; assay: In cell Western, PDGFAA stimulated AKT phosphorylation in human fetal lung fibroblasts; format: cell-based; details: for IC50: Fibroblast
Experimental: HLFs were maintained in subculture at no more than 6 passages in DMEM with 5% FBS and 4 mM Glutamax at 37° C., 5% CO2. HLFs were plated and grown to 70-80% confluence in 96 well plates then serum-starved for 48 hours. […] Antibodies were detected using IRDye 680LT goat anti-mouse IgG and IRDye 800 W goat α-rabbit IgG conjugated antibodies. After washing, the signal was quantified using an Odyssey Infrared Imaging System (LI-COR). Phosphoprotein signal (800 nm) was normalized to total protein signal (700 nm) acquired from each well and experimental duplicates on same plate were averaged and reported.

[2] = test system: PDGFAA stimulated phosphorylation of ERK1 and ERK2; assay: PDGFAA stimulated phosphorylation of ERK1 and ERK2 in human fetal lung fibroblasts; format: cell-based; details: 1 uM; PDGFAA 10 ng/ml
Excerpt: Data shown are mean±SEM. […] PK10453=structure 2; PK10571=structure 2a. Platelet derived growth factor receptor alpha=PDGFR-alpha=PDGFR-α=PDGF receptor alpha=PDGF alpha receptor. Platelet derived growth factor receptor beta=PDGFR-beta=PDGFRβ=PDGF receptor beta=PDGF beta receptor.

[3] = Fluorescent imaging of lung distribution after inhalation with IR780 tracer; format: in vivo, rat; details: 2 min inhalation with IR780 tracer
Experimental: A near IR fluorescent tracer, IR-780, was added to the drug solution in the nebulizer to ensure dried aerosol particles contained both the drug and IR tracer. After a two min exposure, animals were placed under general anesthesia underwent intubation via tracheostomy, and the lungs were excised. OCT/PBS was infused via the pulmonary artery, the lung insufflated with air, and the lungs frozen in the vapor phase of liquid nitrogen. Serial approximate 2 mm sections of lung were imaged on a Licor Odyssey Imager.

rat MCT model = assay: Efficacy in rat MCT model, PK10453 dose response; format: in vivo
Experimental: Male Sprague Dawley rats received MCT 60 mg/kg IPMCT, and after 3 weeks, PK10453 (Structure 2) or vehicle control were administered by inhalation. Four groups were studied: vehicle control (4 min exposure) and three treatment groups of PK10453 (Structure 2) with exposure times 2 min (D2), 4 min (D4), or 8 min (D8) three times a day. These regimens were administered for two weeks. The vehicle consisted of aerosolized 1M tosylic acid neutralized with ammonia vapor as described above. The pH of a solution prepared by dissolving captured aerosol particles in water was measured for every dose and was consistently in the range of 5.5-6.0. At the end of the study, the RV systolic pressure was measured, and the heart chambers dissected and weighed.

rat MCT+PN model [4] = assay: RV pressure, PV loops and RV hypertrophy in rat MCT+PN model; format: in vivo; details: for RV systolic pressure: 14 days
Experimental: In a separate cohort of animals, the MCT+PN model was developed as described above, and PK10453 (Structure 2) was then administered for 4 or 8 min three times a day to the drug treated group. The vehicle control group underwent 4 min exposures three times a day. Pressure Volume (PV) loops were obtained with an admittance system (Scisense, Inc.) after 14 days of treatment, while rats were under general anesthesia with isoflurane and 100% FiO2. Also, or in the alternative, RV pressures were obtained in each group after 14 days of treatment. In a subset of each group, pressure Volume (PV) loops were obtained with an admittance system (high fidelity catheter FTE1918B, Scisense, Inc.) after 14 days of treatment. After induction of general anesthesia and intubation via tracheostomy, the rats were placed on a pressure controlled ventilator (TOPOVENT). General anesthesia consisted of isoflurane and 100% F1O2 with peak inspiratory pressure set at 18 cm, and PEEP 5 cm H2O. A left thoracotomy was performed with admittance catheter in the RV via the RV outflow tract.
At the end of the study, the heart and lungs were removed from ventilated animals under general anesthesia. Heparinized saline was infused under pressure through the main pulmonary artery. The right upper lobe was immediately tied off and placed in liquid nitrogen for Western blot and NanoPro 100 assay analysis. The heart was removed, and the RV free wall, interventricular septum and LV free wall dissected and weighed. Buffered formalin (10%) was infused under pressure both through the pulmonary artery and the trachea. Morphometric analysis was performed on H&E stained formalin fixed tissue sectioned at 8 μm. The media area and lumen area of pulmonary arterioles were measured with Image J software by a technician blinded to treatment group. Measurements were made on 20 pulmonary arterioles per section. The ratio of the lumen area to the total media area was determined. This ratio normalizes the variation in total pulmonary arteriole area. In addition, occlusive analysis was performed in the monocrotaline plus pneumonectomy study (specifically efficacy study 5) according to the method of Homma et al., “Involvement of RhoA/Rho kinase signaling in protection against monocrotaline-induced pulmonary hypertension in pneumonectomized rats by dehydroepiandrosterone.” Am J Physiol Lung Cell Mol Physiol. Vol. 295:L71-8 (2008). Briefly, pre-capillary arterioles were assigned grade 0 for no evidence of neointimal lesions, grade 1 for less than 50% luminal occlusion, and grade 2 for greater than 50% occlusion. Masson Trichrome stains were performed on lung sections from the MCT+PN model. […]

[5] = Body weights of treated rats; format: in vivo, rat; details: D4 and D8 groups; FIG. 19
rat MCT+PN model [6] = assay: Two-chamber plethysmography, PK10453 in rat MCT+PN model; format: in vivo; details: for MV (minute ventilation) / PEF (peak expiratory flow) / PIF (peak inspiratory flow) / SRaw (airway resistance) / TV (tidal volume) / f (breathing frequency): MCT+PN, mean
Experimental: Plethysmography was performed with an EMKA dual chamber plethysmograph and IOX software. Parameters measured included breathing frequency, tidal volume, minute ventilation, peak inspiratory and expiratory flow, and airway resistance (SRaw). Animals were acclimatized to the plethysmograph for three days prior to first data acquisition. Measurements were made prior to the first dose of drug and at the end of the study.

Q: Which “IC50 for PDGFAA stimulated phosphorylation of AKT, PK10453 compared with imatinib” value [1] does the source give for `COc1cc(-c2cncc(N[C@@H](C)c3cccc(NC(=O)c4cncc(C)c4)c3)n2)ccc1O` [PK10453, (S)—N-(3-(1-((6-(4-hydroxy-β-methoxyphenyl)pyrazin-2yl)amino)ethyl)phenyl)-5-methylnicotinamide] here?
A: The value was “not significantly different”.

Q: What about the IC50 ([1]; legend of FIG. 2 PANEL A, read-out: IC50 for PDGFAA stimulation of pAKT(S473)) of the same molecule?
A: The IC50 was 300 to 600 nM.

Q: What about the IC50 ([1]; legend of FIG. 2 PANEL B, read-out: IC50 for PDGFAA stimulation of pAKT(T308)) of the same molecule?
A: Its IC50 is 300 to 600 nM.

Q: What about the “decrease of PDGF AA stimulated ppERK1 and ppERK2 formation” value [2] of the same molecule?
A: The value was “equally effective”.

Q: What about the “spatial distribution in lung after inhalation” value [3] of the same molecule?
A: The value was “well distributed throughout the lungs”.

Q: What about the “degree of RV hypertrophy, ratio (RV+IVS)/LV weight” value (rat MCT model; rat MCT) of the same molecule?
A: The value was “significant reduction”.

Q: What about the “decrease of RV systolic pressure” value (rat MCT model; rat MCT model, discussion) of the same molecule?
A: Its value is 50%.

Q: And the “reduction in RVSP compared to the vehicle treated group” value (rat MCT model; rat MCT, D4)?
A: The value was 44%.

Q: And the “reduction in RVSP compared to the vehicle treated group” value (rat MCT model; rat MCT, D8)?
A: The value was 54%.

Q: And the “(RV+IVS)/LV ratio” value (rat MCT+PN model [4]; D4)?
A: Its value is 0.62±0.04.

Q: What about the RV systolic pressure (rat MCT+PN model [4]; D4, 4 min three times a day) of the same molecule?
A: Its RV systolic pressure is 40.4±2.7 mm Hg and 40.4+2.7 mm Hg.

Q: What about the “(RV+IVS)/LV ratio” value (rat MCT+PN model [4]; D8) of the same molecule?
A: Its value is 0.68±0.05.

Q: And the RV systolic pressure (rat MCT+PN model [4]; D8, 8 min three times a day)?
A: The RV systolic pressure was 43±3.0 mm Hg and 43.0+3.0 mm Hg.

Q: And the “body weight compared to vehicle” value [5]?
A: The value was “trend to a slower rate of decline”.

Q: What about the “MV (minute ventilation)” value (rat MCT+PN model [6]; D4, Day 1) of the same molecule?
A: Its value is 223.24 mL/min.

Q: What about the “PEF (peak expiratory flow)” value (rat MCT+PN model [6]; D4, Day 1) of the same molecule?
A: The value was 11.04.

Q: And the “PIF (peak inspiratory flow)” value (rat MCT+PN model [6]; D4, Day 1)?
A: Its value is 9.82.

Q: What about the “SRaw (airway resistance)” value (rat MCT+PN model [6]; D4, Day 1) of the same molecule?
A: Its value is 39.73.

Q: What about the “TV (tidal volume)” value (rat MCT+PN model [6]; D4, Day 1) of the same molecule?
A: Its value is 1.00 mL.

Q: What about the “f (breathing frequency)” value (rat MCT+PN model [6]; D4, Day 1) of the same molecule?
A: The value was 224.68 breaths per minute.

Q: What about the “MV (minute ventilation)” value (rat MCT+PN model [6]; D4, Day 15) of the same molecule?
A: Its value is 176.12§ mL/min.

Q: What about the “PEF (peak expiratory flow)” value (rat MCT+PN model [6]; D4, Day 15) of the same molecule?
A: The value was 9.33*.

Q: And the “PIF (peak inspiratory flow)” value (rat MCT+PN model [6]; D4, Day 15)?
A: The value was 7.82*.

Q: What about the “SRaw (airway resistance)” value (rat MCT+PN model [6]; D4, Day 15) of the same molecule?
A: Its value is 33.09.

Q: What about the “TV (tidal volume)” value (rat MCT+PN model [6]; D4, Day 15) of the same molecule?
A: Its value is 0.85 mL.

Q: What about the “f (breathing frequency)” value (rat MCT+PN model [6]; D4, Day 15) of the same molecule?
A: Its value is 217.12 breaths per minute.

Q: What about the “MV (minute ventilation)” value (rat MCT+PN model [6]; D8, Day 1) of the same molecule?
A: The value was 174.68 mL/min.

Q: And the “PEF (peak expiratory flow)” value (rat MCT+PN model [6]; D8, Day 1)?
A: Its value is 9.43.

Q: What about the “PIF (peak inspiratory flow)” value (rat MCT+PN model [6]; D8, Day 1) of the same molecule?
A: Its value is 8.54.

Q: What about the “SRaw (airway resistance)” value (rat MCT+PN model [6]; D8, Day 1) of the same molecule?
A: The value was 36.01.

Q: What about the “TV (tidal volume)” value (rat MCT+PN model [6]; D8, Day 1) of the same molecule?
A: Its value is 0.74 mL.

Q: What about the “f (breathing frequency)” value (rat MCT+PN model [6]; D8, Day 1) of the same molecule?
A: Its value is 259.13 breaths per minute.

Q: What about the “MV (minute ventilation)” value (rat MCT+PN model [6]; D8, Day 15) of the same molecule?
A: The value was 128.49 mL/min.

Q: What about the “PEF (peak expiratory flow)” value (rat MCT+PN model [6]; D8, Day 15) of the same molecule?
A: Its value is 6.64.

Q: And the “PIF (peak inspiratory flow)” value (rat MCT+PN model [6]; D8, Day 15)?
A: Its value is 6.06.

Q: And the “SRaw (airway resistance)” value (rat MCT+PN model [6]; D8, Day 15)?
A: Its value is 49.26.

Q: And the “TV (tidal volume)” value (rat MCT+PN model [6]; D8, Day 15)?
A: The value was 0.63 mL.

Q: And the “f (breathing frequency)” value (rat MCT+PN model [6]; D8, Day 15)?
A: Its value is 232.11 breaths per minute.

Q: What about the “effect on lung function” value (rat MCT+PN model [6]; inhaled, 2-wk course) of the same molecule?
A: The value was “did not adversely affect lung function”.
